Reference: ChEMBL document CHEMBL1255253, “The naphthyridinone GSK364735 is a novel, potent human immunodeficiency virus type 1 integrase inhibitor and antiretroviral” (Antimicrob Agents Chemother, 2008)
Activity calls are given as the source filed them. The rule behind the calls is not given here.

Columns and labels:
[1] = test system: Human immunodeficiency virus 1; type: functional, organism-based; details: Human immunodeficiency virus 1, 3B, MT4
[2] = test system: Human immunodeficiency virus; assay: microbe, parasite or virus in culture; details: Human immunodeficiency virus 1, MT4
Description: Antiviral activity against vesicular stomatitis virus G-pseudotyped Human immunodeficiency virus infected in human MT-4 cells assessed as inhibition of viral replication

[3] = test system: Human immunodeficiency virus 1; assay: Antiviral activity against Human immunodeficiency virus 1 Ba-L infected in human PBMCs assessed as inhibition of viral replication; type: functional, organism-based
[4] = test system: Human immunodeficiency virus 1; type: functional, organism-based; details: NL432, MT4
[5] = molecular target: T1, Human immunodeficiency virus type 1 integrase (Human immunodeficiency virus 1, UniProt Q7ZJM1); assay: Displacement of 20 nM [3H]GSK304649 from Human immunodeficiency virus 1 integrase by scintillation proximity assay
T1 sequence (Q7ZJM1 whole entry): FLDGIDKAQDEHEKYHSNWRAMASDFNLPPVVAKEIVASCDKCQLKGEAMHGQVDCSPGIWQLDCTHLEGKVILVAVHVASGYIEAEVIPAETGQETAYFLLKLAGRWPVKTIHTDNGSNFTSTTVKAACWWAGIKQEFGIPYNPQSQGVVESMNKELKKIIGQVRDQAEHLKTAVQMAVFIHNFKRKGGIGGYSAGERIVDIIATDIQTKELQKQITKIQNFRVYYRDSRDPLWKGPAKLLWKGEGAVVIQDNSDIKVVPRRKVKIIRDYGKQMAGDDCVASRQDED

[6] = test system: Human immunodeficiency virus 1; type: functional, organism-based; details: NL432, MT4; remark: listed apart in the source
[7] = test system: Human immunodeficiency virus 1; type: functional, organism-based; details: NL432, MT4; remark: listed apart in the source
[8] = test system: Human immunodeficiency virus 1; assay: Antiviral activity against INI-resistant Human immunodeficiency virus 1 expressing integrase T66I mutant gene infected in human HeLa-CD4 cells after 3 days; type: functional
[9] = test system: Human immunodeficiency virus 1; assay: Antiviral activity against INI-resistant Human immunodeficiency virus 1 expressing integrase T66K mutant gene infected in human HeLa-CD4 cells after 3 days; type: functional, organism-based
[10] = molecular target: T1, Human immunodeficiency virus type 1 integrase; assay: Inhibition of Human immunodeficiency virus 1 integrase by strand transfer scintillation proximity assay
[11] = test system: Human immunodeficiency virus 1; assay: Antiviral activity against INI-resistant Human immunodeficiency virus 1 expressing integrase M154I mutant gene infected in human HeLa-CD4 cells after 3 days; type: functional
[12] = test system: Human immunodeficiency virus 1; assay: Antiviral activity against INI-resistant Human immunodeficiency virus 1 expressing integrase S153Y mutant gene infected in human HeLa-CD4 cells after 3 days; type: functional
[13] = test system: Human immunodeficiency virus 1; assay: Antiviral activity against INI-resistant Human immunodeficiency virus 1 expressing integrase T124A mutant gene infected in human HeLa-CD4 cells after 3 days; type: functional
[14] = test system: Human immunodeficiency virus 1; assay: Antiviral activity against RTI-resistant Human immunodeficiency virus 1; type: functional, organism-based
[15] = test system: Human immunodeficiency virus 1; assay: Antiviral activity against Human immunodeficiency virus 1 Ba-L infected in human PBMCs assessed as inhibition of viral replication in presence of human serum; type: functional, organism-based
[16] = test system: Human immunodeficiency virus 1; assay: Antiviral activity against INI-resistant Human immunodeficiency virus 1 expressing integrase N155S mutant gene infected in human HeLa-CD4 cells after 3 days; type: functional, organism-based
[17] = test system: Human immunodeficiency virus 1; assay: Antiviral activity against INI-resistant Human immunodeficiency virus 1 expressing integrase Q148R mutant gene infected in human HeLa-CD4 cells after 3 days; type: functional, organism-based
[18] = test system: Human immunodeficiency virus 1; assay: Antiviral activity against INI-resistant Human immunodeficiency virus 1 expressing integrase P145S mutant gene infected in human HeLa-CD4 cells after 3 days; type: functional
[19] = molecular target: T1, Human immunodeficiency virus type 1 integrase; assay: Displacement of [3H]GSK304649 from Human immunodeficiency virus 1 integrase by scintillation proximity assay
[20] = test system: Human immunodeficiency virus 1; assay: Antiviral activity against INI-resistant Human immunodeficiency virus 1 expressing integrase Q148K mutant gene infected in human HeLa-CD4 cells after 3 days; type: functional, organism-based
[21] = test system: Human immunodeficiency virus 1; assay: Antiviral activity against PI-resistant Human immunodeficiency virus 1; type: functional, organism-based
[22] = test system: Human immunodeficiency virus 1; assay: Antiviral activity against INI-resistant Human immunodeficiency virus 1 expressing integrase F121Y mutant gene infected in human HeLa-CD4 cells after 3 days; type: functional, organism-based
[23] = test system: Human immunodeficiency virus 1; assay: Antiviral activity against INI-resistant Human immunodeficiency virus 1 expressing integrase E92Q mutant gene infected in human HeLa-CD4 cells after 3 days; type: functional
[24] = test system: Human immunodeficiency virus 1; assay: Antiviral activity against INI-resistant Human immunodeficiency virus 1 expressing integrase Q146R mutant gene infected in human HeLa-CD4 cells after 3 days; type: functional

Structure (SMILES) | EC50 [1] [nM] | EC50 [2] [nM] | EC50 [3] [nM] | Activity [4] | IC50 [5] [nM] | Activity [6] | Activity [7] | other results
COc1cc2c(cc1Cc1cccc(Cl)c1F)c(=O)c(C(=O)O)cn2[C@H](CO)C(C)C | 2 | 1 | 2 | – | – | – | – | –
Cc1nnc(C(=O)NC(C)(C)c2nc(C(=O)NCc3ccc(F)cc3)c(O)c(=O)n2C)o1 | 1.8 | 2 | 2 | – | – | – | – | –
O=C(NCc1ccc(F)cc1)c1nc(N2CCCCS2(=O)=O)c2cccnc2c1O | 11 | 2.2 | 3 | inactive | 13 | Dose-dependent effect | Dose-dependent effect | Kd [5]: 3.3 nM
O=C1Nc2ccc(Cl)cc2[C@@](C#CC2CC2)(C(F)(F)F)O1 | – | – | – | inactive | – | Dose-dependent effect | Dose-dependent effect | –
Cn1c(=O)c(C(=O)NCCO)c(O)c2ncc(Cc3ccc(F)cc3)cc21 [GSK-364735] | 5 | 1.7 | 2 | inactive | 11 | Dose-dependent effect | Dose-dependent effect | fold change (FC) [8]: 1.2; Activity [9]: inactive; IC50 [10]: 7.8 nM; fold change (FC) [11]: 0.8; fold change (FC) [12]: 1.4; fold change (FC) [13]: 1; IC50 [14]: 2.2 nM; EC50 [15]: 42 nM; Activity [16]: inactive; Activity [17]: inactive; fold change (FC) [18]: 1.4; Kd [19]: 26 nM; Activity [20]: inactive; IC50 [21]: 2 nM; Activity [22]: inactive; fold change (FC) [23]: 3.7; fold change (FC) [24]: 1.7
